The subject of data set [1] is Human immunodeficiency virus 1. Description: Antiviral activity against HIV1 3B in human MT2 cells assessed as reduction of virus-induced cytopathogenicity. The format is functional, organism-based. Particulars: Human immunodeficiency virus 1, 3B.
Data set [2] concerns Human immunodeficiency virus 1. The data set is described as follows: Antiviral activity against HIV1 3B in human MT2 cells assessed as inhibition of cell-cell fusion. The settings on record: Human immunodeficiency virus 1, 3B. The format is functional, organism-based.
The nature of data set [3]: Selectivity index, ratio of CC50 for human MT2 cells to EC50 for HIV1 3B. In kind it is toxicity, cell-based. Particulars: read-out: Ratio CC50/IC50.
For another data set, the system named is MT2. Description: Cytotoxicity against human MT2 cells after 4 days by XTT assay. In kind it is cell-based. The settings on record: mt2, 96 h.
Data set [4] deals with Human immunodeficiency virus 1. Description: Antiviral activity against HIV1 3B in human MT2 cells assessed as inhibition of p24 antigen level after 4 days by ELISA. The format is functional, organism-based. The settings on record: Human immunodeficiency virus 1, 3B, MT2, 96 h. Background: An ELISA detects its analyte on a solid surface through an enzyme-linked reagent.
A short description of data set [5]: Inhibition of HIV1 3B gp41 six-helix bundle formation after 30 mins by native-polyacrylamide gel electrophoresis. The arrangement: species or system Human immunodeficiency virus 1.

pIC50: −log10 of the molar value.

In general, pIC50 refers to the IC50 on a negative log10 scale, so that one unit is a factor of ten. What is called CC50 is the concentration giving 50% cytotoxicity. Low values mean greater toxicity to the cells, high ones lower toxicity to the cells. Turning to `Cc1ccc(C)n1-c1ccc(-c2ccccc2)c(C(=O)O)c1`, the pIC50 in data set [1] was 4.42; in data set [2] it was 4.23; in data set [4], 4.75; in data set [5], 4.54. Moreover, in data set [3], the selectivity ratio turned out to be 16.3. Besides, it took 290 µM to reach half-maximal cytotoxicity in the data set on MT2 (CC50).

On to `Cc1ccc(C)n1-c1ccc(O)c(C(=O)O)c1`, for which the pIC50 in data set [1] is 4.26; in data set [2] it was 4.36; in data set [4], 4.55; in data set [5], 4.53. Moreover, in data set [3], the selectivity ratio was found to be 11.8. The same compound displayed a 50% cytotoxic concentration (CC50) with MT2 of 334 µM.

As to `Cc1ccc(C)n1-c1ccc(-c2ccc(/C=C/C(=O)O)cc2)c(C(=O)O)c1`, the pIC50 is 5.11 in data set [1], 5.44 in data set [2], 5.31 in data set [4] and 4.68 in data set [5]. The half-maximal cytotoxic concentration (CC50) in the data set with MT2 is 255 µM.

`Cc1ccc(-c2ccc(-n3c(C)ccc3C)cc2C(=O)O)cc1`: the pIC50 in data set [1] is 4.10; in data set [2] it was 4.29; in data set [4] it was 4.74; in data set [5], 4.67. Also, in data set [3], the selectivity ratio stood at 15.4. Also, the CC50 with MT2 was 280 µM.

Take `Cc1ccc(C)n1-c1ccc(-c2ccc(C(=O)O)cc2)c(C(=O)O)c1`: the pIC50 was 4.47 in data set [1], 4.58 in data set [2], 4.59 in data set [4] and 4.69 in data set [5]. The selectivity ratio in data set [3] was 13.8. Besides, in the data set on MT2, the CC50 is 355 µM.

In the case of `Cc1ccc(C)n1-c1ccc(-c2ccc(CCC(=O)O)cc2)c(C(=O)O)c1`, the pIC50 was 4.88 in data set [1], 5.08 in data set [2], 5.08 in data set [4] and 4.66 in data set [5]. In data set [3], the selectivity ratio was found to be 27.4. This compound also returned a half-maximal cytotoxic concentration (CC50) in the data set with MT2 of 227 µM.
